From patent publication US6372776B1, “Crystalline(−)-3R,4R-trans-7-methoxy-2,2-dimethyl-3-phenyl-4-{4-[2-(pyrrolidin-1-yl)ethoxy]phenyl}chromane, hydrogen maleate” (Novo Nordisk A/S, priority 1997, dated 2002)

What was measured:
solubility in water = type: physicochemical
hygroscopicity = type: physicochemical
[1] = stability characteristics

Compound	solubility in water (solubility in water)	hygroscopicity (hygroscopicity)	bioavailability (bioavailability)	stability characteristics [1]
COc1ccc2c(c1)OC(C)(C)C(c1ccccc1)[C@@H]2c1ccc(OCCN2CCCC2)cc1 (single isomer, unassigned; (-)) [free base, (−)-3R,4R-trans-7-methoxy-2,2-dimethyl-3-phenyl-4-{4-[2-(pyrrolidin-1-yl)ethoxy]phenyl}chromane]	very poor			
(−)-3R,4R-trans-7-methoxy-2,2-dimethyl-3-phenyl-4-{4-[2-(pyrrolidin-1-yl)ethoxy]phenyl}chromane, hydrogen maleate [hydrogen maleate salt]		non-hygroscopic	good	good
